{"source": "patent US9534059B2", "about": "“TIKI inhibitors” (Children's Medical Center Corporation, priority 2012, dated 2017)", "key": {"Tiki1 [1]": {"target": "T1, Tiki1 (Xenopus tropicalis, UniProt F6PTN1)", "T1 construct": "Thus the endogenous Tiki1 in the Organizer acts in both Wnt-producing and Wnt-responding cells; endogenous in cells; host or cells: Xenopus embryos (dorsal blastomeres / organizer)", "T1 sequence (F6PTN1 24-480)": "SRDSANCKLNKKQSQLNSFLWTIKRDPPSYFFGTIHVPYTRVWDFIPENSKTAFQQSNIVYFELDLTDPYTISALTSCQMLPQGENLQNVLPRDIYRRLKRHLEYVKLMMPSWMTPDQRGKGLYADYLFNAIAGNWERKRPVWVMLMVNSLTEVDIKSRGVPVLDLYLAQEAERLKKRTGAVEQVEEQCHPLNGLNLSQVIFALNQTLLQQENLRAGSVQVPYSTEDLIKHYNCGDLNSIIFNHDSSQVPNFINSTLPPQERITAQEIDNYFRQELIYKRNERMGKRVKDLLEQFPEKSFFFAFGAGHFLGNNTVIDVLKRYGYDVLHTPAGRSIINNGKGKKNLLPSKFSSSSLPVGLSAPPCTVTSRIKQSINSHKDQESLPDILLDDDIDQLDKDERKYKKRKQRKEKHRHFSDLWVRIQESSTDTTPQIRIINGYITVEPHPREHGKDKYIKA", "assay": "Anterior neural marker expression at stage 16 in MO-injected embryos, whole mount in situ hybridization (FIG. 3I)", "assay_type": "in vivo", "protocol": "(I) Tiki1 is required for anterior neural patterning. 20 ng of control MO or Tiki1MO plus fluorescein dextran (FLD, as a lineage tracer) were injected into one dorsal blastomere at the 8-cell stage. 50 pg of HA*Tiki1 mRNA were injected into the dorsal-animal blastomeres at the 4-cell stage in rescue experiments. Injected embryos were collected at stage 16 and subjected for whole mount in situ hybridization. Expression of forebrain markers BF1 and Otx2 (not shown) and the midbrain marker Ent was reduced in the Tiki1MO-injected half and was rescued by HA*Tiki1.\nProcedures for embryo manipulation, reverse transcription PCR and in situ hybridization were performed as previously described (Tamai et al., 2000). The arrayed Xenopus tropicalis full length cDNAs (Voigt et al., 2005) were used for the screening as performed previously (Kato et al., 2002). cDNA pools (in the CS107 vector) that contain 96 independent clones were transcribed in vitro using SP6 polymerase, and the resulting mRNA pools were injected into the dorsal side of the embryo at 4-cell stage at the dose of 10 ng RNA/embryo. Injected embryos were scored at stage 30-31 for enlarged or diminished anterior development. The positive pools were divided into smaller pools and the same process was repeated till a single cDNA was identified.\nThe following morpholino oligonucleotides were used: Tiki1 MO: 5′-[…]-3′ (SEQ ID NO:33); standard control MO: 5′-[…]-3′ (SEQ ID NO:34) (Gene Tools, LLC). RT-PCR primers for XTiki1: Forward, 5′-[…]-3′(SEQ ID NO:35), Reverse, 5′-[…]-3′(SEQ ID NO:36); human TIKI1: Forward, 5′-[…]-3′(SEQ ID NO:37), Reverse, 5′-[…]-3′(SEQ ID NO:38); human TIKI2: Forward, 5′-[…]-3′(SEQ ID NO:39), Reverse, 5′-[…]-3′(SEQ ID NO:40).\nThe fact that Tiki1 is specifically expressed in, and is required for function of, the head organizer implies that Tiki1 has a role in anterior neural patterning. Tiki1MO were injected with fluorescein dextran (FLD, as a lineage tracer) into one dorsal-animal blastomere at the 8-cell stage and analyzed expression of anterior neural markers at stage 16. Tiki1MO suppressed, in the injected half of the embryo, the expression of forebrain marker BF1 and Otx2 (FIG. 3I and Table 3). […] HA*Tiki1 mRNA injection rescued the expression of BF1, Otx2, and Ent in Tiki1MO-injected embryos (FIG. 3I and Table 3)."}, "Tiki1 [2]": {"target": "T1, Tiki1", "assay": "S01234-luciferase Wnt-responsive reporter assay in embryos with Tiki1MO knockdown", "assay_type": "in vivo", "settings": "20 ng MO in Xwnt8-producing or Xwnt8-responding cells", "protocol": "(C) The endogenous Tiki1 acts in Wnt-producing cells. Tiki1MO or control MO (20 ng) was co-injected with CS2+Xwnt8 DNA (40 pg) into a single dorsal blastomere at the 8-cell stage, while 501234-Luciferase or S0-luciferase (100 pg) plus TK-Renilla (1.25 pg) reporter DNAs were injected into a neighboring dorsal blastomere.\n(D) The endogenous Tiki1 acts in Wnt-responding cells. S01234-luciferase or S0-luciferease and TK-Renilla reporter DNAs were co-injected with Tiki1MO or control MO into a single dorsal blastomere, while CS2+Xwnt8 was injected into a neighboring dorsal blastomere. Luciferase readings were normalized to Renilla.\nThe same question was addressed complementarily via Tiki1MO knockdown in dorsal blastomeres whose progenies expresses Tiki1 endogenously. At the 8-cell stage, an Xwnt8 expression plasmid (which transcribes Xwnt8 after mid-blastula transition) plus the Tiki1MO (or control MO) were co-injected into a single blastomere (i.e., to knock down Tiki1 in Xwnt8-producing cells), and the S01234-luciferase plasmid was injected into the neighboring blastomere. Alternatively the Xwnt8 plasmid was injected into a single blastomere, and the 501234-luciferase reporter plus Tiki1MO or control MO was co-injected into the neighboring blastomere (i.e., to knock down Tiki1 in Xwnt8-responding cells)."}}, "data": [{"substance": "Tiki1 MO: morpholino antisense oligonucleotide against Tiki1, 5′-CCAAATGATTACCATCATAGCTCAG-3′ (SEQ ID NO:33) (all phosphorodiamidate morpholino (PMO))", "values": [{"measurement": "Whole embryos displaying change in gene expression: BF1 Absent, Percentage (%)", "setting": "Tiki1 [1]; gene BF1, stage 16", "result": 63, "unit": "%"}, {"measurement": "Whole embryos displaying change in gene expression: BF1 NC (No Change), Percentage (%)", "setting": "Tiki1 [1]; gene BF1, stage 16", "result": 14, "unit": "%"}, {"measurement": "Whole embryos displaying change in gene expression: BF1 Reduced, Percentage (%)", "setting": "Tiki1 [1]; gene BF1, stage 16", "result": 23, "unit": "%"}, {"measurement": "Whole embryos displaying change in gene expression: BF1 increased, Percentage (%)", "setting": "Tiki1 [1]; gene BF1, stage 16", "result": 0, "unit": "%"}, {"measurement": "Whole embryos displaying change in gene expression: En-2 Absent, Percentage (%)", "setting": "Tiki1 [1]; gene En-2, stage 16", "result": 40, "unit": "%"}, {"measurement": "Whole embryos displaying change in gene expression: En-2 NC (No Change), Percentage (%)", "setting": "Tiki1 [1]; gene En-2, stage 16", "result": 35, "unit": "%"}, {"measurement": "Whole embryos displaying change in gene expression: En-2 Reduced, Percentage (%)", "setting": "Tiki1 [1]; gene En-2, stage 16", "result": 25, "unit": "%"}, {"measurement": "Whole embryos displaying change in gene expression: En-2 increased, Percentage (%)", "setting": "Tiki1 [1]; gene En-2, stage 16", "result": 0, "unit": "%"}, {"measurement": "Whole embryos displaying change in gene expression: HoxB9 Absent, Percentage (%)", "setting": "Tiki1 [1]; gene HoxB9, stage 16", "result": 0, "unit": "%"}, {"measurement": "Whole embryos displaying change in gene expression: HoxB9 NC (No Change), Percentage (%)", "setting": "Tiki1 [1]; gene HoxB9, stage 16", "result": 100, "unit": "%"}, {"measurement": "Whole embryos displaying change in gene expression: HoxB9 Reduced, Percentage (%)", "setting": "Tiki1 [1]; gene HoxB9, stage 16", "result": 0, "unit": "%"}, {"measurement": "Whole embryos displaying change in gene expression: HoxB9 increased, Percentage (%)", "setting": "Tiki1 [1]; gene HoxB9, stage 16", "result": 0, "unit": "%"}, {"measurement": "Whole embryos displaying change in gene expression: Otx2 Absent, Percentage (%)", "setting": "Tiki1 [1]; gene Otx2, stage 16", "result": 35, "unit": "%"}, {"measurement": "Whole embryos displaying change in gene expression: Otx2 NC (No Change), Percentage (%)", "setting": "Tiki1 [1]; gene Otx2, stage 16", "result": 35, "unit": "%"}, {"measurement": "Whole embryos displaying change in gene expression: Otx2 Reduced, Percentage (%)", "setting": "Tiki1 [1]; gene Otx2, stage 16", "result": 30, "unit": "%"}, {"measurement": "Whole embryos displaying change in gene expression: Otx2 increased, Percentage (%)", "setting": "Tiki1 [1]; gene Otx2, stage 16", "result": 0, "unit": "%"}, {"measurement": "XWnt8 response of S01234-luciferase reporter", "setting": "Tiki1 [2]", "result": "enhanced"}]}]}
